Assay results published in patent US20040132817A1, “Use of an histone deacetylase inhibitor for the treatment of diseases associated with an hpv infection” (priority 2001, published 2004).

What was measured:
[1] = system: "1321" cells; test: Flow-cytometric cell cycle analysis of "1321" keratinocytes (HPV-16 E6/E7 under β-actin promoter); type: cell-based, human; conditions: 6 mM sodium butyrate, 16 hours
From the text: (B) Flow-cytometric analysis. Quantification of the proportion of cells in the cell cycle phases G1, S and G2/M (standard deviations are the mean of three independent experiments).
HPV18-positive cervical Carcinoma cells (HeLa) were maintained in Dulbecco's modified Eagle's medium (DMEM), supplemented with 10% fetal calf serum (Gibco BRL, Rockville, USA), 1% penicillin and streptomycin (Sigma, Deisenhofen, Deutschland). Primary human keratinocytes, immortalized by E6-, E7- and E6/E7-open reading frames carrying amphotroptic retroviruses were cultivated in “Keratinocyte Medium Kit” (Sigma). Human foreskin keratinocytes transformed with HPV-16 E6/E7 either under the control of a human β-actin promoter (,1321″) or under the control of the authentic upstream regulatory region HPV (,1637″) were a kind gift of Dr. R. Schlegel (Georgetown University, Washington, USA) (Münger et al., J. Virol. 63 (1989), 4414-4423; Villa & Schlegel, Virology 181 (1991), 374-377). […]
Cells were harvested by trypsinisation, washed twice with phosphate-buffered saline (PBS) and fixed overnight in 70% ethanol. […] Cell cycle analysis and quantification of flow cytometric data was performed according to Dean and Jett, J. Cell. […]

[2] = system: cdk2; test: Western blot of cdk2 in HeLa cells; type: cell-based, human
Experimental: 50 μg of protein were separated on 12% SDS-PAGE minigels. After electrotransfer, the filters were incubated with antibodies against cyclin D1, cyclin E, cyclin A or cdk2, cdk4 or cdk6 specific antibodies. Equal protein loading was confirmed by reincubating the filters with a monoclonal actin antibody.
(A) Western blot analysis. 75 μg of total cellular protein was loaded on a 12% SDS-PAGE gel. After electrotransfer, the filters were incubated with antibodies directed against HPV18 E7, p21^CIP1 (=p21), p27^KIP1 (=p27) and cdk2.
Cellular extracts were separated in 8-12% SDS PAGE gels and electrotransferred as described elsewhere (Finzer et al., Oncogene 19 (2000), 3235-3244; Soto et al., Oncogene 18 (1999), 3187-3198). The following antibodies were used: cyclin E (HE 12), cyclin D 1 (HD 11), cdk2 (M2), (D-12; Santa Cruz Biotechnology, Inc., Santa Cruz, USA), cdk4 (C-22), cdk6 (C-21), p27^KIP1 (C-19), (K25020), p45^SKP2 (N-19), HPV18-E7 (N-19) and E2F-1 (KH95) (Santa Cruz Biotechnology, Inc. Santa Cruz, USA), p21^CIP1 (C24420; Transduction Laboratories, Lexington, USA), pRB (NCL-RB; Novocastra, UK), p16^INK4 (15126E, Pharmingen, San Diego, USA) and HPV 16 E7 (ZYMED Lab. Inc., San Francisco, USA). Cyclin A was kindly provided by M. Pagano (Pagano et al., EMBO J. 11 (1992), 961-971). […]

[3] = system: HeLa cells; test: Quantification of apoptosis, Cell Death Detection ELISA, HeLa cells; type: cell-based, human; conditions: 16 hours
Experimental: (D) Quantification of apoptosis using a commercially available “Cell Death Detection ELISA” kit.
The rate of apoptosis was determined with the Cell Death Detection kit (ELISA^PLUS, Roche Diagnostics, Mannheim, Germany) following the instructions of the manufacturer.
Quantification of apoptosis using a commercially available “Cell Death Detection ELISA” kit. The enrichment factor, for untreated control cells arbitrarily set as 1, directly reflects the extent of apoptosis in HeLa cells after treatment with trichostatin A for 16 hours. (Contr.): untreated cells; (DMSO): DMSO control; (TSA): treated with 330 nM trichostatin A for 16 hours.

[4] = system: E2F-1; test: Western blot of E2F-1 in HPV16-immortalized keratinocytes; type: cell-based; conditions: HPV16-immortalized human keratinocytes, 6 mM sodium butyrate, 16 hours
Experimental: Western blot analysis of cellular extracts obtained from E6-, E7-, and E6/E7-Immortalized cells which were separated in 8% (pRb) and 12% SDS-PAGE gels. After electrotransfer, the filters were incubated with pRb, E2F-1, cyclin E and actin antibodies. […] Due to quantitative differences of pRb and cyclin E levels in E7- and E6/E7-positive cells, the filters were exposed for different times.
HPV18-positive cervical Carcinoma cells (HeLa) were maintained in Dulbecco's modified Eagle's medium (DMEM), supplemented with 10% fetal calf serum (Gibco BRL, Rockville, USA), 1% penicillin and streptomycin (Sigma, Deisenhofen, Deutschland). Primary human keratinocytes, immortalized by E6-, E7- and E6/E7-open reading frames carrying amphotroptic retroviruses were cultivated in “Keratinocyte Medium Kit” (Sigma). Human foreskin keratinocytes transformed with HPV-16 E6/E7 either under the control of a human β-actin promoter (,1321″) or under the control of the authentic upstream regulatory region HPV (,1637″) were a kind gift of Dr. R. Schlegel (Georgetown University, Washington, USA) (Münger et al., J. Virol. 63 (1989), 4414-4423; Villa & Schlegel, Virology 181 (1991), 374-377). Cells were grown in 3 parts of keratinocyte-serum free medium (K-SFM, GIBCO, BRL) and 1 part of DMEM containing 10% fetal calf serum (GIBCO, BRL) and 0.75% gentamycin, 0.25% penicillin/streptomycin, respectively […]

[5] = system: p27KIP1; test: Western blot of p27KIP1 in "1321" and "1637" keratinocytes; type: cell-based, human; conditions: "1321" and "1637" cells, 6 mM sodium butyrate, 16 hours
Experimental: (B) 75 μg of protein was separated in 12% SDS-PAGE gels as described above (see FIG. 2).
Cellular extracts were separated in 8-12% SDS PAGE gels and electrotransferred as described elsewhere (Finzer et al., Oncogene 19 (2000), 3235-3244; Soto et al., Oncogene 18 (1999), 3187-3198). The following antibodies were used: cyclin E (HE 12), cyclin D 1 (HD 11), cdk2 (M2), (D-12; Santa Cruz Biotechnology, Inc., Santa Cruz, USA), cdk4 (C-22), cdk6 (C-21), p27^KIP1 (C-19), (K25020), p45^SKP2 (N-19), HPV18-E7 (N-19) and E2F-1 (KH95) (Santa Cruz Biotechnology, Inc. Santa Cruz, USA), p21^CIP1 (C24420; Transduction Laboratories, Lexington, USA), pRB (NCL-RB; Novocastra, UK), p16^INK4 (15126E, Pharmingen, San Diego, USA) and HPV 16 E7 (ZYMED Lab. Inc., San Francisco, USA). Cyclin A was kindly provided by M. Pagano (Pagano et al., EMBO J. 11 (1992), 961-971). Equal protein transfer and loading was routinely checked by incubating the filters with a monoclonal actin antibody (ICN Biomedicals, Ohio, USA).

[6] = system: cdk2; test: Histone H1 kinase assay of cdk2 complexes from "1321" and "1637" keratinocytes; type: cell-based, human; conditions: "1321" and "1637" cells, 6 mM sodium butyrate, 16 hours
Experimental: (A) Upper panel: cdk2 complexes were immunoprecipitated and assayed for their activity using histone H1 as substrate. Lower panels: Western blot analysis of the cdk 2 complexes. Filters were incubated with specific antibodies against p21^CIP1 (=p21) and p27^KIP1 (=p27). Equal precipitation and loading was controlled by incubation with a cdk 2 antibody.
For cell fractionation, cell monolayers were washed twice with PBS and harvested by trypsinisation. Cell extract preparation and cdk2 activity assays were exactly done as described by Blomberg and Hoffmann, Mol. Cell. Biol. 19 (1999), 6183-6194. In addition, cdk2 was immunoprecipitated and analyzed by immunoblotting. Beads used for cdk2 kinase assay were washed 3 times with lysis buffer (Blomberg and Hoffmann, 1999), incubated with Laemmli sample buffer and boiled for 5 min. Supernatant was analyzed by SDS-PAGE gels. Immunoblotting was carried out with the following antibodies: p21^CIP1 (C24420) and p27^KIP1 (K25020; Transduction Laboratories) or HPV18-E7 (N-19; Santa Cruz, Inc.). Cdk2 specific antibodies or preimmune serum were kindly provided by I. Hoffmann (DKFZ, Heidelberg).

SMILES | proportion of cells within S-phase ([1]; untreated 31.5%) | cells in G1 ([1]; untreated 54.2%) | cdk2 expression ([2]; 6 mM sodium butyrate, 16 hours) | amount of cdk2, time course ([2]; NaB time course) | apoptosis (release of histone-associated DNA fragments) ([3]; sodium butyrate) | E2F-1 level [4] | p27KIP1 level [5] | cdk2 kinase activity (histone H1) [6] | apoptosis (release of histone-associated DNA fragments) ([3]; 330 nM trichostatin A) | apoptosis (release of histone-associated DNA fragments) ([3]; 330 nM trichostatin A, listed as Trichostatin A)
CCCC(=O)[O-].[Na+] [sodium butyrate] | 18.6% | 65.3% | neither the cyclin-dependent kinase 2 (cdk2) nor cdk4 or cdk6 revealed any significant influence on their expression rates | completely unaffected | induce programmed cell death to a significant extent | did not significantly vary | increased to the same extent | inability of cdk2 to phosphorylate histone H1 |  | 
CC(/C=C/C(=O)NO)=C\[C@@H](C)C(=O)c1ccc(N(C)C)cc1 [trichostatin A] |  |  |  |  |  |  |  |  | much stronger | Induction of Apoptosis
